Assays:
[1] = test system: influenza A/PR/8/34; assay type: in vivo, BALB/c mice; details: lethal challenge with influenza A/PR/8/34
[2] = test system: whole virus; test: Serum IgG ELISA against whole virus in immunized mice; assay type: in vivo; details: archived murine serum samples
[3] = test system: KLH; test: Anti-KLH serum IgG ELISA in immunized mice; assay type: in vivo; details: archived murine serum samples

Substance: keyhole limpet hemocyanin [KLH]
- outcome following lethal challenge [1]: no benefit over naives
- average IgG titer against whole virus [2]: 800
- average anti-KLH IgG titer [3]: 819,000

Reference: patent US9709558B2, “Compound arrays for sample profiling” (priority 2009, dated 2017)
